7 compounds from patent publication US20260184710A1, “CASITAS B-LINEAGE LYMPHOMA PROTOONCOGENE B (CBL-B) DEGRADING COMPOUNDS AND ASSOCIATED METHODS OF USE” (Arvinas Operations, Inc., priority 2022, published 2026) can be followed below.

The structures appear in SMILES notation. A value given as a limit tells only on which side of the number the result lay.

A word on the Dmax: it is the largest share of the target that was removed.

T1 sequence (Q13191 whole entry): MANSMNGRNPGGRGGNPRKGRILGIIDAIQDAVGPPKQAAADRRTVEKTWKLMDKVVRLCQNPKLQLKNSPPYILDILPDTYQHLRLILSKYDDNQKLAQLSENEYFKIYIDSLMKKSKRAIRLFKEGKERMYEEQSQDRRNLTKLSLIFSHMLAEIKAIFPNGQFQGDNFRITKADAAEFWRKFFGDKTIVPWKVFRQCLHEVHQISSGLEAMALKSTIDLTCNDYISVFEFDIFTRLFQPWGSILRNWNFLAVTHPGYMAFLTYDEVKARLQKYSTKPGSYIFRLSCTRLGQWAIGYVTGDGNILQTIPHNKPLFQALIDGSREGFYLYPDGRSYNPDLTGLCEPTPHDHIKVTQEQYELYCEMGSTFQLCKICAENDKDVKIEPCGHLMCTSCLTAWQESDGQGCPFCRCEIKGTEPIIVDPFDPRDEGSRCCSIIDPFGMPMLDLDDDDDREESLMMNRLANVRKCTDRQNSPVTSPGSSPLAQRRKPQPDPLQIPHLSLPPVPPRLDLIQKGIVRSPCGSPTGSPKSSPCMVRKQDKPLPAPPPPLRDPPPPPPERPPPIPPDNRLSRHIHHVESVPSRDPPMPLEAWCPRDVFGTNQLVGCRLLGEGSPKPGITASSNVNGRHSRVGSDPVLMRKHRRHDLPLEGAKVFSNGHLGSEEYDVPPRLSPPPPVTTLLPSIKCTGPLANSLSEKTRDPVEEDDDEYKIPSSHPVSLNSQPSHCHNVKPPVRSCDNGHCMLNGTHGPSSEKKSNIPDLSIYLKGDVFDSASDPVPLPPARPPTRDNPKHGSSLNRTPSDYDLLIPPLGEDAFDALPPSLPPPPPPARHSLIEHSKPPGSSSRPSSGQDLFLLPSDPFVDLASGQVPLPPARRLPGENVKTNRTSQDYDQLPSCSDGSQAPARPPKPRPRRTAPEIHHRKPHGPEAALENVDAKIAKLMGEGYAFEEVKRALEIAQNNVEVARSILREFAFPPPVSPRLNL

One assay addresses T1, Cbl-b (Homo sapiens, UniProt Q13191).
T1 construct: Cbl-b-HiBit KI Jurkat Cells were purchased from Promega; host or cells: Cbl-b-HiBiT knock-in Jurkat cells
The experiment in a line: Cbl-b Degradation Method B (Nano-Glo HiBiT lytic detection). It counts as cell-based. Particulars: Cbl-b-HiBit KI Jurkat Cells, incubated at least 6-24 hours; half maximal degradation; read-out: Cbl-b Degredation Method B IC50. The method, then:
Cbl-b Degradation Method B [table] Cbl-b-HiBit KI Jurkat Cells were purchased from Promega, and cell media consisted of RPMI 1640 with 10% […] and 1% pen/strep. The cells were counted, measured for viability, and 35 μL of the cell solution was seeded into 384 well flat bottom plates at a ratio of 20,000 cells per 35 μL. After which, the plates were incubated for ˜24 hours at 37° C. and 5% CO2. Compounds were ordered from Evotec in a 384 well plate at a 1 mM top concentration in DMSO and serially diluted 1:3 in DMSO for an 11-point dose response. Using the Bravo instrument, 1 uL of compound solution or DMSO was transferred to 125 uL of media. Each well was treated with 5 μL of compound plus media mixture or DMO and subsequently incubated for at least 6-24 hours at 37° C. and 5% CO2. After incubation, 30 μL of either NanoGlo media was added to each cell, and the plates read on the Synergy Neo2 machine. The concentration of an exemplary compound that leads to half maximal degradation (DC50) as well as the maximum degradation observed (Dmax, conventionally expressed as a percentage of control) is shown below in Table 2.
For orientation: The HiBiT peptide binds its large partner to form an active luciferase.
As to `Cn1cnnc1CC1(c2cccc(N3Cc4c(cc(CN5CCC(c6ccc7c(c6)C(=O)N(C6CCC(=O)NC6=O)C7)CC5)cc4C(F)(F)F)C3=O)c2)COC1` (centres unmarked) [Example 36, 3-[6-(1-{[2-(3-{3-[(4-methyl-4H-1,2,4-triazol-3-yl)methyl]oxetan-3-yl}phenyl)-3-oxo-7-(trifluoromethyl)-2,3-dihydro-1H-isoindol-5-yl]methyl}piperidin-4-yl)-1-oxo-2,3-dihydro-1H-isoindol-2-yl]piperidine-2,6-dione], the DC50 was over 500 nM. For the compound `Cn1cnnc1CC1(c2cccc(N3Cc4c(cc(CNC5CC(Oc6ccc7c(c6)C(=O)N(C6CCC(=O)NC6=O)C7=O)C5)cc4C(F)(F)F)C3=O)c2)COC1` (centres unmarked) [Example 37, 2-(2,6-dioxopiperidin-3-yl)-5-[3-({[2-(3-{3-[(4-methyl-4H-1,2,4-triazol-3-yl)methyl]oxetan-3-yl}phenyl)-3-oxo-7-(trifluoromethyl)-2,3-dihydro-1H-isoindol-5-yl]methyl}amino)cyclobutoxy]-2,3-dihydro-1H-isoindole-1,3-dione], the DC50 was over 500 nM. On the same count and under the same terms, for `Cn1cnnc1CC1(c2cccc(N3Cc4c(cc(CNC5CCN(c6ccc7c(c6)C(=O)N(C6CCC(=O)NC6=O)C7=O)CC5)cc4C(F)(F)F)C3=O)c2)COC1` (centres unmarked) [Example 38, 2-(2,6-dioxopiperidin-3-yl)-5-[4-({[2-(3-{3-[(4-methyl-4H-1,2,4-triazol-3-yl)methyl]oxetan-3-yl}phenyl)-3-oxo-7-(trifluoromethyl)-2,3-dihydro-1H-isoindol-5-yl]methyl}amino)piperidin-1-yl]-2,3-dihydro-1H-isoindole-1,3-dione] the value was over 500 nM; for `Cn1cnnc1CC1(c2cccc(N3Cc4c(cc(CN5CCC(CCN6CCN(c7ccc8c(c7)C(=O)N(C7CCC(=O)NC7=O)C8=O)CC6)CC5)cc4C(F)(F)F)C3=O)c2)COC1` (centres unmarked) [Example 39, 2-(2,6-dioxopiperidin-3-yl)-5-{4-[2-(1-{[2-(3-{3-[(4-methyl-4H-1,2,4-triazol-3-yl)methyl]oxetan-3-yl}phenyl)-3-oxo-7-(trifluoromethyl)-2,3-dihydro-1H-isoindol-5-yl]methyl}piperidin-4-yl)ethyl]piperazin-1-yl}-2,3-dihydro-1H-isoindole-1,3-dione], over 500 nM. Still for that read-out and setting: to `Cn1cnnc1CC1(c2cccc(N3Cc4c(cc(CN5CCC(COCC6CCN(c7ccc8c(c7)C(=O)N(C7CCC(=O)NC7=O)C8=O)CC6)CC5)cc4C(F)(F)F)C3=O)c2)COC1` (centres unmarked) [Example 40, 2-(2,6-dioxopiperidin-3-yl)-5-(4-{[(1-{[2-(3-{3-[(4-methyl-4H-1,2,4-triazol-3-yl)methyl]oxetan-3-yl}phenyl)-3-oxo-7-(trifluoromethyl)-2,3-dihydro-1H-isoindol-5-yl]methyl}piperidin-4-yl)methoxy]methyl}piperidin-1-yl)-2,3-dihydro-1H-isoindole-1,3-dione] belongs over 500 nM; to `Cn1cnnc1CC1(c2cccc(N3Cc4c(cc(CN5CCN(c6ccc7c(c6)CN(C6CCC(=O)NC6=O)C7=O)CC5)cc4C(F)(F)F)C3=O)c2)COC1` (centres unmarked) [Example 41, 3-[5-(4-{[2-(3-{3-[(4-methyl-4H-1,2,4-triazol-3-yl)methyl]oxetan-3-yl}phenyl)-3-oxo-7-(trifluoromethyl)-2,3-dihydro-1H-isoindol-5-yl]methyl}piperazin-1-yl)-1-oxo-2,3-dihydro-1H-isoindol-2-yl]piperidine-2,6-dione], 5 to 50 nM; to `Cn1cnnc1CC1(c2cccc(N3Cc4c(cc(CN5CCC6(CC5)CN(c5cccc7c5CN(C5CCC(=O)NC5=O)C7=O)C6)cc4C(F)(F)F)C3=O)c2)COC1` (centres unmarked) [Example 42, 3-[4-(7-{[2-(3-{3-[(4-methyl-4H-1,2,4-triazol-3-yl)methyl]oxetan-3-yl}phenyl)-3-oxo-7-(trifluoromethyl)-2,3-dihydro-1H-isoindol-5-yl]methyl}-2,7-diazaspiro[3.5]nonan-2-yl)-1-oxo-2,3-dihydro-1H-isoindol-2-yl]piperidine-2,6-dione], over 500 nM.

Staying with this assay, now noted: Cbl-b-HiBit KI Jurkat Cells, incubated at least 6-24 hours; maximum degradation observed; read-out: Cbl-b Degredation Method B Dmax (%).
Regarding `Cn1cnnc1CC1(c2cccc(N3Cc4c(cc(CN5CCN(c6ccc7c(c6)CN(C6CCC(=O)NC6=O)C7=O)CC5)cc4C(F)(F)F)C3=O)c2)COC1` (centres unmarked) [Example 41, 3-[5-(4-{[2-(3-{3-[(4-methyl-4H-1,2,4-triazol-3-yl)methyl]oxetan-3-yl}phenyl)-3-oxo-7-(trifluoromethyl)-2,3-dihydro-1H-isoindol-5-yl]methyl}piperazin-1-yl)-1-oxo-2,3-dihydro-1H-isoindol-2-yl]piperidine-2,6-dione], the Dmax was over 70%.
